According to US11845770B2, “Ascaroside derivatives and methods of use” (California Institute of Technology, priority 2019, dated 2023):
“Also recorded” adds a separate entry of the source.

Assays:
[1] = biological target: T1, CYP2C19 (Homo sapiens, UniProt P33261); experiment: 5 in 1 CYP inhibition assay, CYP2C19; assay type: in vitro ADME; details: microsomes, probe S-mephenytoin (4′-hydroxylation), test compound 10 μM, n=2, read-out: inhibition of cytochrome P450 isoform 2C19
T1 construct: from tissue
Procedure: CYP450 dependent activities were determined using a marker substrate cocktail. For each reaction, enzyme activities in the presence and absence of test compound (10 μM) were measured in duplicate. A known inhibitor for each isoform, tested at a single concentration (3 μM, n=2), was included as positive control. Incubation mixtures containing microsomes, substrate, and standard inhibitor or test compound were warmed at 37° C. for 10 minutes. Reactions were initiated by addition of the NADPH and incubated for 10 min. [table] After incubation, ice cold acetonitrile was added to terminate the reaction. Generation of metabolites from the substrate reactions was determined by LC-MS/MS.

[2] = tested on: A549 human alveolar epithelial cells; experiment: Stimulation of A549 human lung carcinoma cell line, cytokine expression; assay type: cell-based; details: A549, 10 ng/mL TNFα + 10 ng/mL IL-1β, 48 hours; for percent inhibition relative to Stimulated of IL-8 expression: FIG. 16
Procedure: A549 cells are cultured in DMEM supplemented with 2 mM glutamine and 10% Fetal Bovine Serum (FBS) at 37° C. with 5% (v/v) CO2. Cells are grown to approximately 80% confluency before being passage and media is changed every 2-3 days. A549 cells are seeded in 24-well plates at a density of 0.5×10^6 cells per well at 37° C. with 5% (v/v) CO2. The cells are pre-treated with the compounds (0, 1.0, 10, 100 μM) for 1 hour prior to addition of 10 ng/mL of TNFα and 10 ng/mL of IL-1β for 48 hours at 37° C. with 5% (v/v) CO2. Supernatants were collected and stored at −80° C. until quantitative detection assays are performed.
Human Eotaxin, Monocyte Chemoattractant Protein-1 (MCP-1), Interleukin-6 (IL-6), Interleukin-25 (IL-25), Interleukin-33 (IL-33), Thymic stromal lymphopoietin (TSLP), and Granulocyte-Macrophage Colony-Stimulating Factor (GM-CSF) released from supernatants collected post stimulation were measured using Human Magnetic Luminex® Assay Kit. Human CCL5/RANTES was measured using an Enzyme-Linked Immunosorbent Assay (ELISA)-based analysis.

[3] = tested on: THP1 human macrophage cells; experiment: Stimulation of THP-1 cells, IL-6 at 6 or 36 hours post stimulation; assay type: cell-based; details: THP1-derived macrophages, IFNγ + LPS, 0.1 to 500 μM, FIG. 9
Procedure: Human immortalized monocytic THP-1 cells were maintained in phenol red free RPMI 1640 medium containing 10% (v/v) fetal bovine serum (FBS), 2 mM L-glutamine, penicillin (100 units/mL), streptomycin (100 μg/mL), amphotericin B (2.5 μg/mL), and 50 μM beta-mercaptoethanol (BME) at 37° C. with 5% (v/v) CO2. THP-1 cells were seeded in 1 mL of THP-1 medium (cell culture medium containing 10% (v/v) FBS, 2 mM L-glutamine, penicillin (100 units/mL), streptomycin (100 μg/mL), amphotericin B ([…]), and 50 μM BME)/well at a density of 1×10^6 cells/mL in six-well plates. Cells were differentiated by adding 10, 50, or 100 nM phorbol 12-myristate 13-acetate (PMA) to each well before incubating cells for 5.5 h at 37° C. with 5% (v/v) CO2. Without removing the media, different concentrations (either 0, 0.1, 1.0, 10, 100, 200, or 500 μM) of the compound were added to each well. Cells were stimulated, within 30 min by adding 20 ng/mL interferon gamma (IFNγ) and 100 ng/mL lipopolysaccharide (LPS) to each well. Following stimulation, the THP-1 cells were incubated for 6 or 36 hours at 37° C. with 5% (v/v) CO2. Supernatant was collected and stored at −80° C. until use.
IL-6 released from supernatants collected at 6 or 36 hours post stimulation with IFNγ and LPS were measured using the AlphaLISA Human IL-6 detection kit.

[4] = tested on: EPC2 human esophageal keratinocytes; experiment: Stimulation of EPC2-hTERT human esophageal keratinocytes with Poly(I:C); assay type: cell-based; details: 24 hours, increasing concentrations
Procedure: EPC2-hTERT (EPC2) cells were maintained in supplemented keratinocyte serum-free medium (KSFM) with 0.09 mM calcium chloride containing epidermal growth factor (5 ng/mL), bovine pituitary extract ([…]), penicillin (100 units/mL), and streptomycin ([…]) (ThermoFisher #17005042) at 37° C. with 5% (v/v) CO2. EPC2 cells were seeded in 12-well plates at 0.55×10^6 cells per well in supplemented KSFM at 37° C. with 5% (v/v) CO2 and after 6 hours the old media is removed and changed with fresh media. After overnight incubation, the old media is changed to supplemented KSFM containing 1.8 mM calcium chloride and incubated for 72 hours at 37° C. with 5% (v/v) CO2. After the old media is removed and fresh supplemented KSFM containing 1.8 mM calcium chloride is added, the cells are pre-treated with different concentrations of compounds (0, 1, 10, 100, 500, 1000 μM) for 1 hour prior to stimulation. To stimulate the cells, Poly (I:C) (Tocris #4287) is added to the wells at […] concentration without removing the media and incubated for 24 hours at 37° C. with 5% (v/v) CO2. Supernatants are collected in Eppendorf tubes, centrifuged in a microfuge at maximum speed for 10 minutes at 4° C., and the centrifuged supernatants stored at −80° C. until quantitative detection assays are performed. Human Interleukin-6 (IL-6), Monocyte Chemoattractant Protein-1 (MCP-1), and Thymic stromal lymphopoietin (TSLP) released from supernatants collected post stimulation were measured using the AlphaLISA detection kit for human IL-6, MCP-1, and TSLP, respectively.

T1 sequence (P33261 whole entry, canonical isoform): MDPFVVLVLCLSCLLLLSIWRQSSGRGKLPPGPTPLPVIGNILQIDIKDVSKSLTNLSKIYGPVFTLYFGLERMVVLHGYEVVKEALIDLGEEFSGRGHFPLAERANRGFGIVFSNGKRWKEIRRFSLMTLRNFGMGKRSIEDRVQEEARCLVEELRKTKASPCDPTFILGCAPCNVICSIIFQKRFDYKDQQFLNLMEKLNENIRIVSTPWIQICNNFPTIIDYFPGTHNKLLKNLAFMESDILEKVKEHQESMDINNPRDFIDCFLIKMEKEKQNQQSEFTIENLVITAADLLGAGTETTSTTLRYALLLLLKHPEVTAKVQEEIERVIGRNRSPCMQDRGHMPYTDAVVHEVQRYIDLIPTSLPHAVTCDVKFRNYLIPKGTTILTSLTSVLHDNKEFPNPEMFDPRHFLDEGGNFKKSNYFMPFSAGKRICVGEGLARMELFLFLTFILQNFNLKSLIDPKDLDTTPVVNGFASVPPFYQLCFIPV

Row | Structure (SMILES) | inhibition at 10 min, 10 µM [1] [%] | percent inhibition relative to Stimulated of IL-8 expression ([2]; 1.0, 10, 100 μM) | percent inhibition relative to Stimulated of GM-CSF expression ([2]; 1.0, 10, 100 μM, FIG. 16, 17) | percent inhibition relative to Stimulated of IL-25 expression ([2]; 1.0, 10, 100 μM, FIG. 16, 17) | percent inhibition relative to Stimulated of MCP-1 expression ([2]; 1.0, 10, 100 μM, FIG. 16, 17) | percent inhibition relative to Control of IL-6 levels secreted [3] | percent inhibition relative to Stimulated of IL-33 expression ([2]; 1.0, 10, 100 μM, FIG. 16, 17) | percent inhibition relative to Stimulated of Eotaxin expression ([2]; FIG. 18) | percent inhibition relative to Stimulated of IL-6 expression ([2]; FIG. 18) | percent inhibition relative to Stimulated of RANTES expression ([2]; FIG. 18) | percent inhibition relative to Stimulated of TSLP expression ([2]; FIG. 18) | percent inhibition relative to Stimulated of TSLP expression ([4]; FIG. 19A) | percent inhibition relative to Stimulated of IL-6 expression ([4]; FIG. 19B) | percent inhibition relative to Stimulated of MCP-1 expression ([4]; FIG. 19C)
1 | C[C@H](CC/C=C/C(=O)O)O[C@@H]1O[C@@H](C)[C@H](O)C[C@H]1O [ascr #7, reference compound] | 4 | did not influence | statistically significant but not dose-dependent inhibition | did not influence | statistically significant but not dose-dependent inhibition | – | – | – | – | – | – | – | – | –
2 | C[C@H](CC/C=C/C(=O)OC(C)(C)C)O[C@@H]1O[C@@H](C)[C@H](O)C[C@H]1O [Compound 1, tert-butyl (2E,6R)-6-{[(2R,3R,5R,6S)-3,5-dihydroxy-6-methyloxan-2-yl]oxy}hept-2-enoate] | 16.2 | dose-dependent inhibition | statistically significant, dose-dependent inhibition | dose-dependent inhibition | statistically significant, dose-dependent inhibition | inhibited IL-6 expression in statistically significant, dose-dependent manner | statistically significant, dose-dependent inhibition | robust, statistically significant inhibition | robust, statistically significant inhibition | robust, statistically significant inhibition | robust, statistically significant inhibition | statistically significant inhibition; also recorded: robust blocking | inhibited IL-6 expression in statistically significant, dose-dependent manner | inhibited MCP-1 expression in statistically significant, dose-dependent manner
